# In patent publication EP0000190A1, “Solutions with a local anesthetic effect” (Dr. Karl Thomae GmbH, priority 1977, dated 1979):
# Experiments:
# Cornea = experiment: Local anaesthetic effect (touch stimulus) and corneal epithelium status after eye drops in rabbits, versus Kerakain; format: in vivo; conditions: Kaninchen
# Source text: Die überlegene kurzfristige lokalanästhetische Wirkung der neuen Lösungen wurde im Vergleich zu Proxymetacain (0,5%ige 2-Diäthyl-aminoäthyl-3-amino-4-propoxybenzoesäure-hydrochlorid-Lösung = Chibro® -Kerakain) am Kaninchen wie folgt geprüft: • Den Versuchstieren, die nach Spaltlampen-Untersuchung keine Schädigung des Cornea-Epithels zeigten und klinisch keine konjunktivale Entzündung aufwiesen, wurden jeweils 2 Tropfen der entsprechenden Augentropfen appliziert. Die Sensibilität der zentralen Cornea ist eine Minute nach Applikation durch Berührungsreiz, das gesamte Hornhautepithel und die Sensibilität 5, 10, 15 und 30 Minuten nach Applikation beurteilt worden. Der Untersuchen. der die Sensibilität und den Hornhaut-Epithel-Status beurteilte, war hierbei nicht darüber informiert, welches Auge jeden Tieres mit Chibro® -Kerakain behandelt war.
# Die nachfolgende Tabelle enthält die aufgefundenen Versuchsergebnisse: […]
# [1] = test system: Mund- bzw. Rachenschleimhaut; experiment: Local anaesthesia of human mouth and throat mucosa after spray from a metering pump valve; format: in vivo, Mensch; conditions: 2%ige NA 872-Lösung, 3-8 Hübe des Pump-Dosier-Ventils, Mund- bzw. Rachenschleimhaut des Menschen, 6 Probanden
# Source text: Die oben aufgezeigte Wirkung konnte unter Heranziehung des Aesthe-siometers nach Cochet und Bonnet am menschlichen Auge mit Tropf- bzw. bei der Anwendung als Spray-Applikation mit Hilfe des Pump-Dosier-Ventils an der Mund- bzw. Rachenschleimhaut bestätigt werden. Bei einer Konzentration von 0,5 bis 1 % NA 872 und der Appli kation von 1 bis 2 Tropfen pro Auge tritt die lokalanästhetische Wirkung innerhalb von 30 bis 60 Sekunden ein, die Wirkungsdauer betrug 15 bis 30 Minuten, bzw. bei der Applikation einer 2%igen NA 872-Lösung mittels 3-8 Hüben des Pump-Dosier-Ventils an der Mund- bzw.
# Acute toxicity = conditions: mouse, in vivo, po, Maus, als Hydrochlorid
# [2] = 0,5 % NA 872, 2 Tropfen, 5 Minuten nach Applikation
# [3] = 1,0 % NA 872, 2 Tropfen, 5 Minuten nach Applikation
# [4] = 1,0 % NA 872, 2 Tropfen, 10 Minuten nach Applikation
# [5] = 1,0 % NA 872, 2 Tropfen, 15 Minuten nach Applikation
# [6] = 2,0 % NA 872, 2 Tropfen, 5 Minuten nach Applikation
# [7] = 2,0 % NA 872, 2 Tropfen, 10 Minuten nach Applikation
# [8] = Augentropfen, conclusion from the table
smiles,measurement,setting,value
"Nc1c(Br)cc(Br)cc1CN[C@H]1CC[C@H](O)CC1 [NA 872, 2-Amino-3,5-dibrom-N-(trans-4-hydroxycyclohexyl)-benzylamin]",Erhobener Anästhesie-Befund (A),"Cornea; 0,5 % NA 872, 2 Tropfen, 1 Minute nach Applikation",++
same,Erhobener Anästhesie-Befund (A),Cornea; [2],+
same,Hornhaut-Befund (HH),Cornea; [2],o.B.
same,Hornhaut-Befund (HH),"Cornea; 0,5 % NA 872, 2 Tropfen, 10 Minuten nach Applikation",o.B.
same,Hornhaut-Befund (HH),"Cornea; 0,5 % NA 872, 2 Tropfen, 15 Minuten nach Applikation",o.B.
same,Hornhaut-Befund (HH),"Cornea; 0,5 % NA 872, 2 Tropfen, 30 Minuten nach Applikation",o.B.
same,Erhobener Anästhesie-Befund (A),"Cornea; 1,0 % NA 872, 2 Tropfen, 1 Minute nach Applikation",++
same,Erhobener Anästhesie-Befund (A),Cornea; [3],+
same,Hornhaut-Befund (HH),Cornea; [3],o.B.
same,Erhobener Anästhesie-Befund (A),Cornea; [4],+
same,Hornhaut-Befund (HH),Cornea; [4],o.B.
same,Erhobener Anästhesie-Befund (A),Cornea; [5],(+)
same,Hornhaut-Befund (HH),Cornea; [5],o.B.
same,Hornhaut-Befund (HH),"Cornea; 1,0 % NA 872, 2 Tropfen, 30 Minuten nach Applikation",o.B.
same,Erhobener Anästhesie-Befund (A),"Cornea; 2,0 % NA 872, 2 Tropfen, 1 Minute nach Applikation",++
same,Erhobener Anästhesie-Befund (A),Cornea; [6],++
same,Hornhaut-Befund (HH),Cornea; [6],o.B.
same,Erhobener Anästhesie-Befund (A),Cornea; [7],+
same,Hornhaut-Befund (HH),Cornea; [7],o.B.
same,Hornhaut-Befund (HH),"Cornea; 2,0 % NA 872, 2 Tropfen, 15 Minuten nach Applikation",o.B.
same,Hornhaut-Befund (HH),"Cornea; 2,0 % NA 872, 2 Tropfen, 30 Minuten nach Applikation",o.B.
same,Nebenwirkung auf das Epithel im Vergleich zur Vergleichslösung,Cornea; [8],geringere Nebenwirkung auf das Epithel
same,lokalanästhetische Wirkung im Vergleich zur Vergleichslösung,Cornea; [8],kürzere lokalanästhetische Wirkung als die Vergleichslösung
same,Anästhesie,[1],leichte Anästhesie
same,LD50,Acute toxicity,2720 mg/kg
